Results as given in US6074859A, “Mutant-type bioluminescent protein, and process for producing the mutant-type bioluminescent protein” (Kikkoman Corporation, priority 1998, dated 2000).

T1: Luciola cruciata luciferase, wild type (Nipponoluciola cruciata, UniProt P13129)
T1 sequence (P13129 1-548): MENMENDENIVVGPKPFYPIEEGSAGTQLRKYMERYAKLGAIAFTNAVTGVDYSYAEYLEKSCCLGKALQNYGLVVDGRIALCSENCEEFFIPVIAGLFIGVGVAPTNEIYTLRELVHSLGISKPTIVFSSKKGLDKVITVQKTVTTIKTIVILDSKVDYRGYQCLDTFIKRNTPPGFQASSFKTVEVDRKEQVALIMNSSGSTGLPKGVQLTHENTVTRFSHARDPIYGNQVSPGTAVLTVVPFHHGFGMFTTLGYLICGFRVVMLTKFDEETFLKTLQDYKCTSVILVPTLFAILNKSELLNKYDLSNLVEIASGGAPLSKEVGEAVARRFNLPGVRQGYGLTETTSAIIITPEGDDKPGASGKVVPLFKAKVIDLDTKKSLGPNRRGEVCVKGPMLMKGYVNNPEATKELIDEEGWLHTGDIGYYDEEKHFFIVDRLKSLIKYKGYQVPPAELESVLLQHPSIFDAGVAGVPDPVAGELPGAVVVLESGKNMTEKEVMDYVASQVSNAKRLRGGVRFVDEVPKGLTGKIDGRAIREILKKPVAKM

B1: Luciola lateralis luciferase (Aquatica lateralis) (protein)
chain: MENMENDENIVYGPEPFYPIEEGSAGAQLRKYMDRYAKLGAIAFTNALTGVDYTYAEYLEKSCCLGEALKNYGLVVDGRIALCSENCEEFFIPVLAGLFIGVGVAPTNEIYTLRELVHSLGISKPTIVFSSKKGLDKVITVQKTVTAIKTIVILDSKVDYRGYQSMDNFIKKNTPQGFKGSSFKTVEVNRKEQVALIMNSSGSTGLPKGVQLTHENAVTRFSHARDPIYGNQVSPGTAILTVVPFHHGFGMFTTLGYLTCGFRIVMLTKFDEETFLKTLQDYKCSSVILVPTLFAILNRSELLDKYDLSNLVEIASGGAPLSKEIGEAVARRFNLPGVRQGYGLTETTSAIIITPEGDDKPGASGKVVPLFKAKVIDLDTKKTLGPNRRGEVCVKGPMLMKGYVDNPEATREIIDEEGWLHTGDIGYYDEEKHFFIVDRLKSLIKYKGYQVPPAELESVLLQHPNIFDAGVAGVPDPIAGELPGAVVVLEKGKSMTEKEVMDYVASQVSNAKRLRGGVRFVDEVPKGLTGKIDGKAIREILKKPVAKM

Assays:
[1] = target: Photinus pyralis luciferase, wild type (Photinus pyralis, UniProt P08659); test: Km for substrate ATP, peak light emission (HEPES pH 7.5); format: biochemical; details: read-out: Km for the substrate ATP; ATP 0 to 2 mM, 50 mM HEPES (pH 7.5), 0.2 mM luciferin, 10 mM MgSO4
[2] = target: T1, Luciola cruciata luciferase, wild type; test: as above; format: biochemical; details: read-out: Km for the substrate ATP; ATP 0 to 2 mM, 50 mM HEPES (pH 7.5), 0.2 mM luciferin, 10 mM MgSO4
Description: Then, this suspension was frozen in an ethanol/dry ice bath and then allowed to stand at a temperature of 25° C. until it was completely thawed. Further, it was centrifuged at 12,000 r.p.m. for 5 minutes whereby 20 ml crude enzyme was obtained as the supernatant. The crude enzyme solution thus obtained was purified according to the method described in Japanese Patent Laid-Open Publication 141592/1989, and the purified enzyme was designated GA1 luciferase. The Km value of this purified preparation for the substrate ATP was determined.

[3] = test system: GA1 luciferase (fusion of Luciola cruciata luciferase N-terminal portion and Photinus pyralis luciferase C-terminal portion, SEQ ID NO:5); test: as above; format: biochemical; details: read-out: Km for the substrate ATP; ATP 0 to 2 mM, 50 mM HEPES (pH 7.5), 0.2 mM luciferin, 10 mM MgSO4
Description: The Km value of this purified preparation for the substrate ATP was determined. The peak of the emission of light generated by use of the enzyme with the concentration of ATP varying from 0 to 2 mM in a solution containing 50 mM HEPES (pH 7.5), 0.2 mM luciferin and 10 mM MgSO4 was measured in Luminometer ML3000 (Dynatech) and the result is shown in the table 1 below.

[4] = test system: GGA1 luciferase (fusion of thermostable Luciola cruciata luciferase N-terminal, Thr217Ile, and Photinus pyralis luciferase C-terminal, SEQ ID NO:7); format: biochemical; details: read-out: Km for the substrate ATP; purified GGA1 enzyme, Table 2
Description: E. coli JM109 (pGGA1) was inoculated on an LB-amp agar plate [1% (W/V) Bacto-trypton, 0.5% (W/V) yeast extract, 0.5% (W/V) NaCl, (50 a g/ml) ampicillin and 1.4% (W/V) agar] and cultured at 37° C. The colonies appearing 16 hours thereafter were cultured at 37° C. for 18 hours under shaking in 10 ml of an LB-amp medium [1% (W/V) Bacto-trypton, 0.5% (W/V) yeast extract, 0.5% (W/V) NaCl and (50 μ g/ml) ampicillin]. This culture, 10 ml, was inoculated into 2 L of the above LB-amp medium and cultured at 30 ° C. for 6 hours under shaking and then centrifuged at 8000 r.p.m. for 10 minutes to give 30 g wet microbial pellet. The recovered microorganism was suspended in 20 ml buffer consisting of 0.1 M KH2 PO4 (pH 7.8), 2 mM EDTA, 1 mM dithiothreitol and 0.2 mg/ml protamine sulfate, and 2 ml of 10 mg/ml lysozyme solution was further added thereto and the mixture was allowed to stand on ice for 15 minutes. Then, this suspension was frozen in an ethanol/dry ice bath and then allowed to stand at a temperature of 25° C. until it was completely thawed. Further, it was centrifuged at 12,000 r.p.m. for 5 minutes whereby 20 ml crude enzyme was obtained as the supernatant. […]
The Km value of this purified GGA1 enzyme for the substrate ATP was determined (Table 2).

[5] = target: Photinus pyralis luciferase (Photinus pyralis, UniProt P08659); test: Km for substrate ATP, peak light emission (Tricine pH 7.8); format: biochemical; details: read-out: Km (affinity for ATP); ATP 0 to 2 mM, 50 mM Tricine buffer (pH 7.8), 0.2 mM luciferin, 10 mM MgSO4
Description: (§1) Further, its crude enzyme solution was prepared using the method described in Example 1 and the enzyme was purified in a method described in Japanese Patent Application Laid-Open Publication No. 141592/89. The purified enzyme was designated HHA1 luciferase.

[6] = test system: HHA1 luciferase (fusion of Luciola lateralis luciferase N-terminal, from pHLf7-217Leu, and Photinus pyralis luciferase C-terminal, SEQ ID NO:10); test: as above; format: biochemical; details: read-out: Km (affinity for ATP); ATP 0 to 2 mM, 50 mM Tricine buffer (pH 7.8), 0.2 mM luciferin, 10 mM MgSO4
Description: 50 ng of the above EcoRV--EcoRV fragment from pT3/T7-LUC and 50 ng of the above EcoRV-NaeI fragment from pHLf7-217Leu were incubated at 15° C. for 16 hours in 20 μ l DNA ligase buffer in the presence of 300 U of T4 DNA ligase. The reaction mixture was used to transform E. coli JM 109 by the Hana-han method [DNA Cloning, 1, 109-135 (1985)], and ampicillin-resistant colonies were selected. A crude enzyme was prepared from the selected colonies in the method described in Example 1, and a plasmid was removed by the alkali-SDS method from those having luminescence activity, and the structure of the plasmid was confirmed. This plasmid was subjected to reaction with a dye primer tuck sequencing kit (Applied Biosystems) and analyzed by electrophoresis with an ABI 373A DNA sequencer (Applied Biosystems) to determine its nucleotide sequence (SEQ ID NO:9). The amino acid sequence of a polypeptide estimated to be translated from said nucleotide sequence is shown in SEQ ID NO:10. The plasmid thus obtained was designated pHHA1.
as §1

[7] = test system: GGA1 luciferase variant GGA1 T219I (219-position Thr to Ile); test: Catalytic efficiency (Vmax/Km) toward ATP, integrated light emission; format: biochemical, Luciola cruciata / Photinus pyralis; details: ATP 0 to 1.0×10^-3 mM, 50 mM Tricine buffer (pH 7.8), 2.0 mM luciferin, 10 mM MgSO4; light integrated 5 to 15 seconds
Description: (§2) The resulting transformant was inoculated on an LB-amp plate [1.0% (W/V) Bacto-trypton, 0.5% (W/V) yeast extract, 0.5% (W/V) NaCl, 1.5% (W/V) agar and 50 μ g/ml ampicillin] and cultured at 37° C. for 12 hours. The resulting colonies were transferred onto a nitrocellulose filter, and said filter was immersed in 0.1 M sodium citrate buffer (pH 5.0) containing 0.5 mM luciferin [Wood & DeLuca, Anal. Biochem., 161, 501-507 (1987)]. The emission of light from said colonies was monitored, and 3 strains with raised emission could be obtained. These strains were designated E. coli JM 109 (pGGA2-1), E. coli JM 109 (pGGA1-4) and E. coli JM 109 (pGGA2-4), respectively. The E. coli JM 109 (pGGA2-1), E. coli JM 109 (pGGA1-4) and E. coli JM 109 (pGGA2-4) thus obtained have been deposited respectively as FERM BP-6206, FERM BP-6205 and FERM BP-6204 with the National Institute of Bioscience and Human-Technology, Agency of Industrial Science and Technology. Plasmids were removed from these strains by alkali-SDS method. These plasmids were subjected to reaction with a dye primer tuck sequencing kit (Applied Biosystems) and analyzed by electrophoresis with an ABI 373A DNA sequencer (Applied Biosystems) to determine their mutation sites (Table 4).
(§3) From the E. coli JM 109 (pGGA2-1), E. coli JM 109 (pGGA1-4), E. coli JM 109 (pGGA2-4), their crude enzyme solutions were extracted by the method described in Example 1, and these mutant enzymes were purified in the method described in Japanese Patent Laid-Open Publication No. 141592/1989.The purified enzymes were designated GGA1 T219I luciferase, GGA1 V290I luciferase and GGA1 V239I luciferase, respectively. […] The emission of light from 5 seconds to 15 seconds after initiation of the reaction was integrated in Luminometer ML3000 (Dynatech) to determine catalytic efficiency (Vmax/Km). As shown in the table below, it was confirmed that as compared with the GGA1 luciferase, catalytic efficiency was improved by mutating each of the amino acids at the 219-, 290-, and 239-positions.

[8] = test system: GGA1 luciferase variant GGA1 V239I (239-position Val to Ile); test: as above; format: biochemical, Luciola cruciata / Photinus pyralis; details: ATP 0 to 1.0×10^-3 mM, 50 mM Tricine buffer (pH 7.8), 2.0 mM luciferin, 10 mM MgSO4; light integrated 5 to 15 seconds
Description: as §2, §3

[9] = test system: GGA1 luciferase variant GGA1 V290I (290-position Val to Ile); test: as above; format: biochemical, Luciola cruciata / Photinus pyralis; details: ATP 0 to 1.0×10^-3 mM, 50 mM Tricine buffer (pH 7.8), 2.0 mM luciferin, 10 mM MgSO4; light integrated 5 to 15 seconds
Description: as §2, §3

[10] = substrate: Nc1ncnc2c1ncn2[C@@H]1O[C@H](COP(=O)(O)OP(=O)(O)OP(=O)(O)O)[C@@H](O)[C@H]1O; test: cells, lysate or membranes named; format: biochemical, Luciola lateralis; details: other: ATP 0 to 2 mM, 50 mM Tricine buffer (pH 7.8), 0.2 mM luciferin, 10 mM MgSO4
Description: as §1

Sequence of Photinus pyralis luciferase, wild type (P08659 whole entry): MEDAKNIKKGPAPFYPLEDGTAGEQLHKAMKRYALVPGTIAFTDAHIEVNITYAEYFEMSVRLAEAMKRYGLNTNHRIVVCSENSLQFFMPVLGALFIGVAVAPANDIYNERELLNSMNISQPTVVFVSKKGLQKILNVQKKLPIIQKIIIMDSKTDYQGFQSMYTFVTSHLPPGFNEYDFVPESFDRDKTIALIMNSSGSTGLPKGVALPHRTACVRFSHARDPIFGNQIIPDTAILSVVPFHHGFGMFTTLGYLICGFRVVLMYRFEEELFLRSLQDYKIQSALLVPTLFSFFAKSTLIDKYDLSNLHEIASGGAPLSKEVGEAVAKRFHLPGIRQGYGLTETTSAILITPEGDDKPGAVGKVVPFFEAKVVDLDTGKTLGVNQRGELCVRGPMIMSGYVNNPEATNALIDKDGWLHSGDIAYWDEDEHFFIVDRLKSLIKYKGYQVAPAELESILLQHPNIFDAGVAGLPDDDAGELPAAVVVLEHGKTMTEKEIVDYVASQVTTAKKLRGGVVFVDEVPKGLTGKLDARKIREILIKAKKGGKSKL
Sequence of Photinus pyralis luciferase (P08659 whole entry): as above

| Molecule | Km [1] [µM] | Km [2] [µM] | Km [3] [µM] | Km [4] [µM] | Km [5] [µM] | Km [6] [µM] | Vmax/Km toward the substrate ATP [7] | Vmax/Km toward the substrate ATP [8] | Vmax/Km toward the substrate ATP [9] | Km [10] [µM] |
| --- | --- | --- | --- | --- | --- | --- | --- | --- | --- | --- |
| Nc1ncnc2c1ncn2[C@@H]1O[C@H](COP(=O)(O)OP(=O)(O)OP(=O)(O)O)[C@@H](O)[C@H]1O [ATP] | 152 | 301 | 26.5 | 104 | 161 | 123 | 2.16 × 10^9 RLU/mg | 1.58 × 10^9 RLU/mg | 1.70 × 10^9 RLU/mg |  |
| B1 |  |  |  |  |  |  |  |  |  | 197 |
